US20240051965A1, “OXYGEN-CONTAINING HETEROCYCLIC COMPOUND AND USE THEREOF” (Icahn School of Medicine at Mount Sinai, priority 2022, published 2024)

System: TGF/SMAD Signaling Pathway SBE Reporter-HEK293 Cell Line
Assay: Luciferase screen, TGF/SMAD Signaling Pathway SBE Reporter-HEK293 cells stimulated with TGFβ
Type: cell-based
Settings: compound 4 hours before TGFβ 10 ng/mL, incubated overnight (18 hours), luminescence
Method: For the data in Table 1, the Bight-Glo™ Luciferase Assay System from Promega was used with TGF/SMAD Signaling Pathway SBE Reporter-HEK293 Cell Line from BPSbioscience. On day 1 SBE reporter-HEK293 cells were seeded at a density of 25,000 cells per well into a white clear-bottom 96-well microplate in 100 μL of growth medium without geneticin. The plate was incubated at 37° C. in a CO2 incubator for 24 hrs. The wells were renewed with 60 μL assay medium and treated with test compounds by adding 5 μL of compounds in medium. The concentration of test compound in medium is adjusted so that 5 μL will provide the desired molarity of the solution. After 4 hours, TGFβ was added to 10 ng/mL. The plate was incubated at 37° C. in a CO2 incubator overnight (18 hours). One hour prior to assay all medium was replaced. The luciferase assay was run using ONE-Step™ Luciferase Assay System by adding 100 μL of ONE-Step™ Luciferase reagent per well, rocking at room temperature for ˜15 to 30 minutes and measuring luminescence using a luminometer. The signals were normalized to percentage inhibition, with non-TGF treated cells as 100% inhibition, and the data were processed by Graphpad Prism.
The symbol “***” indicates IC50<100 nM, “**” indicates IC50≥100 nM but <10 μM, “*” indicates IC50≥10 μM.

O[C@H]1Cc2cc(-c3noc(-c4ccc(Cl)cc4)n3)cnc2OC12CCC2 [Compound 8]
IC50: ≥ 10 µM

Cn1ccc(-c2noc(-c3cnc4c(c3)C[C@H](O)C3(CCC3)O4)n2)n1 [Compound 6]
IC50: ≥ 10 µM

Cc1ccc(-c2noc(-c3cnc4c(c3)C[C@H](O)C3(CCC3)O4)n2)cc1 [Compound 5]
IC50: ≥ 10 µM

O[C@@H]1Cc2cc(-c3nc(-c4ccc(Cl)cc4)no3)cnc2OC12CCC2 [Compound 2]
IC50: < 0.1 µM

O[C@H]1Cc2cc(-c3nc(-c4ccc(Cl)cc4)no3)cnc2OC12CCC2 [Compound 1]
IC50: 0.1 to 10 µM

[2H]C([2H])([2H])C1(C([2H])([2H])[2H])Oc2ncc(-c3nc(-c4ccc(Cl)cc4)no3)cc2C[C@@H]1O [Compound 9]
IC50: < 0.1 µM

O[C@H]1Cc2cc(-c3nc(-c4ccc(Cl)c(F)c4)no3)cnc2OC12CCC2 [Compound 4]
IC50: ≥ 10 µM

O[C@H]1Cc2cc(-c3nc(-c4ccc(Cl)cc4)no3)cnc2OC12CCCC2 [Compound 3]
IC50: ≥ 10 µM

O[C@H]1Cc2cc(-c3nnc(-c4ccc(Cl)cc4)o3)cnc2OC12CCC2 [Compound 7]
IC50: 0.1 to 10 µM
